In US10434095B2, “3-(1-oxo-4-((4-((3-oxomorpholino)methyl)benzyl)oxy)isoindolin-2-yl)piperidine-2,6-dione and isotopologues thereof” (Celgene Corporation, priority 2017, dated 2019):

Columns and labels:
IgM production = test: Immunoglobulin assay (ELISA) of plasmablast culture supernatants; format: cell-based, human; conditions: during plasmablast differentiation; FIG. 4
Method: (§1) Fresh B cell cocktail was prepared by adding 50 μg/mL of human transferrin to B cell medium (Iscove's medium with 10% PFBS, 1% P/S, and 5 μg/mL human insulin). The required volume of medium needed for the experiment was filtered through a 0.22 micron filter. Add B cell differentiation cocktail (final concentration): recombinant human Interleukin (IL)-2 (20 U/mL), IL-10 (50 ng/mL), IL-15 (10 ng/mL), CD40 Ligand/TNFSF5/histidine-tagged (50 ng/mL), polyHistidine mouse IgG1 antibody (5 μg/mL), and ODN 2006-Human TLR9 ligand (10 μg/mL) to cells. Five milliliters (1×10^5/mL) of CD19^+ B cells were added to each well of a 6-well flat-bottom plate (final cell count=5×10^5/well). Five microliters of a 1× solution of compound or DMSO was added to each test well (0.1% final concentration of DMSO) and incubated at 37{dot over (◯)}° C. for 4 days.
(§2) Cells were harvested and counted on the cell counter, an aliquot was removed for flow analysis, and the remaining cells were washed with phosphate buffered saline (PBS). Fresh B cell cocktail was prepared by adding 1 μg/ml of human transferrin to B cell medium (Iscove's medium with 10% PFBS, 1% P/S, and 5 μg/mL human insulin). […]
(§3) On Day 4 and Day 7 cells were harvested and counted on the cell counter. […]
(§4) Supernatants (see B Cell Differentiation Assay above) were harvested and analyzed by ELISA for IgG and IgM production (ZeptoMetrix Corp, Buffalo, N.Y.).

IgG production = test: as above; format: cell-based, human; conditions: during plasmablast differentiation; FIG. 5
Method: as §1, §2, §3, §4

[1] = test system: primary human CD19+ B cells differentiating toward the plasma cell lineage; test: B cell differentiation assay, cell phenotyping by flow cytometry (CD20/CD38); format: cell-based; conditions: in vitro primary human B cell differentiation culture; FIG. 1
Method: The effect of Compound I-S on the expression of transcription factors controlling plasma cell differentiation and immunoglobulin production using an in-vitro human B-cell differentiation culture system was invesitaged according to the procedures below:
Twenty-five milliliters human buffy coat were placed into each of two 50-mL conical tubes and 25 mL sterile Hank's buffered saline solution (HBSS) were added to each conical tube. The tubes were gently mixed by inverting. Fifteen milliliters of room temperature Ficoll-Paque Plus (GE Healthcare; Cat#17-1440-02) were placed into each of four 50-mL conical tubes. Then 25 mL of the buffy coat/HBSS mixture were layered gently and slowly on top of the Ficoll. […] The cell pellet was resuspended in 20 mL of B cell medium (Iscove's modified Dulbecco's medium+10% premium fetal bovine serum [PFBS], 1% penicillin/streptomycin [P/S], and 5 μg/mL human insulin), pipetted through a 30 micron filter, and an aliquot was counted using the cell counter.
Aliquots of purified PBMCs (2×10^8 cells) were placed in tubes, centrifuged at 1200 rpm for 5 minutes, and then supernatants were discarded. […] The enriched CD19^+ cells were resuspended in 5 mL of B cell medium and counted on the cell counter. […]
(§5) Cells were harvested and counted on the cell counter, an aliquot was removed for flow analysis, and the remaining cells were washed with phosphate buffered saline (PBS). […]

primary human B cells = test: Cell viability analysis (Trypan blue live cell count) in B cell differentiation culture; format: cell-based; conditions: cell counts on Day 4 and Day 7 of the 7 day culture; FIG. 2
Method: as §1, §5, §3
To determine live cell count, B cells (see B Cell Differentiation Assay above) were stained with 0.4% Trypan blue (Gibco cat #15250) and live cells counted using the Countess automated cell counter (Invitrogen) in duplicate samples.

OBF-1 = test: Gene expression (RT-PCR) in differentiated B cells; format: cell-based, human; conditions: Day 7 differentiated B cells, normalized to 0.1% DMSO; FIG. 3
Method: as §1
(§6) Cells were harvested and counted on the cell counter, an aliquot was removed for flow analysis, and the remaining cells were washed with phosphate buffered saline (PBS). Fresh B cell cocktail was prepared by adding 1 μg/ml of human transferrin to B cell medium (Iscove's medium with 10% PFBS, 1% P/S, and 5 μg/mL human insulin). The required volume of medium needed for the experiment was filtered through a 0.22 micron filter. B cell differentiation cocktail (final concentration) consisting of: recombinant human IL-2 (20 U/mL), IL-10 (50 ng/mL), IL-15 (10 ng/mL), and IL-6 (50 ng/mL) was added to cells. Fresh B cell cocktail was added to cells. Cells were transferred back to the original wells and the volume was adjusted to 5 mL. Five microliters of a 1× solution of compound or DMSO was added to each test well (0.1% final DMSO) and incubated at 37{dot over (◯)}° C. for 3 days.
(§7) On Day 4 and Day 7 cells were harvested and counted on the cell counter. A portion of the cells were then removed for flow analysis and the remaining cells were lysed with RLT buffer and stored at −80° C. for RNA extraction and gene expression. Supernatants were divided into aliquots and frozen at −20° C. for immunoglobulin assays.
(§8) Differentiated B cells (see B Cell Differentiation Assay above) were harvested for total ribonucleic acid (RNA) preparation with a Qiacube RNA extraction instrument (Qiagen, Valencia, Calif.) using QIAGEN RNeasy mini spin-column kits (Catalog #74104). Purified RNA was reverse transcribed into cDNA with thermal cycler (MJ Research, Inc., St. Bruno, Quebec, Canada) using a reverse-transcriptase kit (Applied Biosystems). The gene expression assay was carried out using 7500 real time polymerase chain reaction (RT-PCR) system (Applied Biosystems) in triplicate. A glyceraldehyde 3-phosphate dehydrogenase gene expression assay control was run for each sample and used as a normalization control. For each gene, values for samples within each experiment were normalized to the corresponding 0.1% DMSO treatment value for that particular time point.

IRF-4 = test: Gene expression (RT-PCR) in differentiated B cells; format: cell-based, human; conditions: Day 7 differentiated B cells, normalized to 0.1% DMSO; FIG. 3
Method: as §1, §6, §7, §8

BLIMP-1 = test: Gene expression (RT-PCR) in differentiated B cells; format: cell-based, human; conditions: Day 7 differentiated B cells, normalized to 0.1% DMSO; FIG. 3
Method: as §1, §6, §7, §8

XBP-1 = test: Gene expression (RT-PCR) in differentiated B cells; format: cell-based, human; conditions: Day 7 differentiated B cells, normalized to 0.1% DMSO; FIG. 3
Method: as §1, §6, §7, §8

IgJ = test: Gene expression (RT-PCR) in differentiated B cells; format: cell-based, human; conditions: Day 7 differentiated B cells, normalized to 0.1% DMSO; FIG. 3
Method: as §1, §6, §7, §8

BCL-6 = test: Gene expression (RT-PCR) in differentiated B cells; format: cell-based, human; conditions: Day 7 differentiated B cells, normalized to 0.1% DMSO; FIG. 3
Method: as §1, §6, §7, §8

O=C1CC[C@H](N2Cc3c(OCc4ccc(CN5CCOCC5=O)cc4)cccc3C2=O)C(=O)N1 [Compound I-S, (S)-3-(1-oxo-4-((4-((3-oxomorpholino)methyl)benzyl)oxy)isoindolin-2-yl)piperidine-2,6-dione]
IgM production (IgM production): significantly inhibited
IgG production (IgG production): significantly inhibited
percentage of CD20+CD38- activated B cells (ABC) [1]: increased
percentage of CD20-CD38+ plasmablasts (PB) [1]: dose-dependently reduced
B cell viability (live cell count) (primary human B cells): reduce B cell viability
expression of plasma cell lineage transcription factor OBF-1 (OBF-1): dose-dependently and significantly inhibited
expression of plasma cell lineage transcription factor IRF-4 (IRF-4): dose-dependently and significantly inhibited
expression of plasma cell lineage transcription factor BLIMP-1 (BLIMP-1): dose-dependently and significantly inhibited
expression of plasma cell lineage transcription factor XBP-1 (XBP-1): dose-dependently and significantly inhibited
expression of plasma cell lineage transcription factor IgJ (IgJ): dose-dependently and significantly inhibited
expression of germinal center lineage B cell transcription factor BCL-6 (BCL-6): did not decrease
